Experimental data from US20060160864A1, “Acrylamide derivative, process for producing the same, and use” (priority 2003, published 2006).

Tested on: not given
Assay: not given
Settings: not given

SMILES | melting point [°C]
CCCCOCCOc1ccc(-c2ccc(N3CCC(C(=O)O)C3)c(/C=C(\C)C(=O)Nc3ccc([S@@+]([O-])Cc4cncn4CCC)cc3)c2)cc1 (some centres unmarked) [Compound 41, (Ss)-(2E)-3-[4′-(2-butoxyethoxy)-4-(3-carboxypyrrolidin-1-yl)-1,1′-biphenyl-3-yl]-2-methyl-N-[4-[[(1-propyl-1H-imidazol-5-yl)methyl]sulfinyl]phenyl]acrylamide] | 184 to 186
CCCCOCCOc1ccc(-c2ccc(N3CCC(C(=O)NC)C3)c(/C=C(\C)C(=O)Nc3ccc([S@@+]([O-])Cc4cncn4CCC)cc3)c2)cc1 (some centres unmarked) [Compound 44, (Ss)-(2E)-3-[4′-(2-butoxyethoxy)-4-[3-(methylaminocarbonyl)pyrrolidin-1-yl]-1,1′-biphenyl-3-yl]-2-methyl-N-[4-[[(1-propyl-1H-imidazol-5-yl)methyl]sulfinyl]phenyl]acrylamide] | 127 to 128.5
CCCCOCCOc1ccc(-c2ccc(N3CCC4(C3)OCCO4)c(/C=C(\C)C(=O)Nc3ccc([S@@+]([O-])Cc4cncn4CCC)cc3)c2)cc1 [Compound 37, (S)-(2E)-3-[4′-(2-butoxyethoxy)-4-(1,4-dioxa-7-azaspiro[4.4]non-7-yl)-1,1′-biphenyl-3-yl]-2-methyl-N-[4-[[(1-propyl-1H-imidazol-5-yl)methyl]sulfinyl]phenyl]acrylamide] | 139.5 to 140.5
CCCCOCCOc1ccc(-c2ccc(N3CCC(C(=O)N(C)C)C3)c(/C=C(\C)C(=O)Nc3ccc([S@@+]([O-])Cc4cncn4CCC)cc3)c2)cc1 (some centres unmarked) [Compound 45, (Ss)-(2E)-3-[4′-(2-butoxyethoxy)-4-[3-(dimethylaminocarbonyl)pyrrolidin-1-yl]-1,1′-biphenyl-3-yl]-2-methyl-N-[4-[[(1-propyl-1H-imidazol-5-yl)methyl]sulfinyl]phenyl]acrylamide] | 151 to 152

Molecular target: T1, human CCR5 (Homo sapiens, UniProt P51681)
T1 construct: expressed in transfected cells
T1 sequence (P51681 whole entry): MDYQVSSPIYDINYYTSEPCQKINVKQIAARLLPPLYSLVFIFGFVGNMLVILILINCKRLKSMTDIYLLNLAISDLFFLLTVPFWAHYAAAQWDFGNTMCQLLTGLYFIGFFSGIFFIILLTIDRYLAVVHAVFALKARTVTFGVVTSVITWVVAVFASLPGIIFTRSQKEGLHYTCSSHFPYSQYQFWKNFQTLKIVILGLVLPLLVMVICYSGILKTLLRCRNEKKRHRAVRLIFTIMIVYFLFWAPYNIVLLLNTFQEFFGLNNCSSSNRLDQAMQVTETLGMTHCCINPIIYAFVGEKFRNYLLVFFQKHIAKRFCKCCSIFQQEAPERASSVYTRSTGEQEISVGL
Assay: Inhibition of [125I]-RANTES binding to CCR5/CHO cells (CCR5 antagonist activity)
Settings: 40 min, test compound 1 μM, [125I]-RANTES 100 pM, CCR5/CHO strains, room temperature, read-out: Binding Inhibitory Ratio (%)
Experimental: Cloning of a CCR5 gene was conducted from human spleen cDNA by a PCR method. Using 0.5 ng of spleen cDNA (Toyobo Co., Ltd., QUICK-Clone cDNA) as a template, the PCR reaction was carried out in a DNA Thermal Cycler 480 (Perkin Elmer) using a TaKaRa EX Taq (Takara Shuzo Co., Ltd.) (reaction conditions: 30 cycles of treatments at 95° C. for 1 minute, at 60° C. for 1 minute, and at 75° C. for 5 minutes) by adding 25 pmol of primers, SEQ ID NO. 1 (sequence length: 34; sequence type: nucleic acid; number of chains: a single chain; topology: linear; sequence kind: other nucleic acid, synthetic DNA) described in Experimental Example (1) of WO 99/32100, and SEQ ID NO. 2 (sequence length: 34; sequence type: nucleic acid; number of chains: a single chain; topology: linear; sequence kind: other nucleic acid, synthetic DNA) described in Experimental Example (1) of WO 99/32100, respectively, which were prepared by referring to the base sequence of the CCR5 gene described by Samson et al. (Biochemistry 35 (11), 3362-3367 (1996)). The PCR products were subjected to agarose gel electrophoresis to collect DNA fragments of about 1.0 kb. Then, the CCR5 gene was cloned using an Original TA Cloning Kit (Funakoshi Co., Ltd.).
The plasmids obtained above were digested with restriction enzymes XbaI (Takara Shuzo Co., Ltd.) and BamHI (Takara Shuzo Co., Ltd.), and subjected to agarose gel electrophoresis to collect DNA fragments of about 1.0 kb. The DNA fragments and a plasmid pcDNA3.1 (Funakoshi Co., Ltd.) for expression in animal cells, which was previously digested with XbaI and BamHI, were mixed and ligated by DNA Ligation Kit Ver.2 (Takara Shuzo Co., Ltd.). Transformation of E. coli JM109 competent cells (Takara Shuzo Co., Ltd.) gave plasmid pCKR5.
CHO-K1 cells grown in a 750 ml tissue culture flask (Becton Dickinson) using Ham's F12 medium (Nihon Pharmaceutical Co., Ltd.) containing 10% fetal bovine serum (Lifetech Oriental) were collected from the flask by using 0.5 g/L trypsin-0.2 g/L EDTA (Lifetech Oriental). The cells were then washed with PBS (Lifetech Oriental), centrifuged (1000 rpm, 5 minutes), and suspended in PBS. Next, DNA was introduced into the cells using Gene Pulser (Bio-Rad Laboratories Inc.) under the following conditions. Namely, 8×10^6 cells and 10 μg of plasmid pCKR5 for expression of human CCR5 were added into a cuvette of a 0.4 cm-gap, and electroporation was carried out at an electric voltage of 0.25 kV and a capacitance of 960 μF. Subsequently, the cells were transferred into Ham's F12 medium containing 10% fetal bovine serum, and incubated for 24 hours. The cells were again collected, centrifuged, and then suspended in Ham's F12 medium containing 10% fetal bovine serum and Geneticin (Lifetech Oriental) at a concentration of 500 μg/ml. The suspension of cells was diluted to a concentration of 10^4 cells/ml, and inoculated on a 96-well plate (Becton Dickinson) to give Geneticin-resistant strains.
Subsequently, the Geneticin-resistant strains were cultured in the 96-well plate (Becton Dickinson), and then CCR5-expressing cells were selected from the resistant strains. Namely, an assay buffer (Ham's F12 medium containing 0.5% BSA, and 20 mM HEPES (Wako Pure Chemical Industries, Ltd., pH 7.2)) containing 200 pM [^125I]-RANTES (Amersham) as a ligand was added to each well and the binding reaction was carried out at room temperature for 40 minutes. Each well plate containing the cells was washed with ice-cooled PBS, and then to each well was added 1 M NaOH in an amount of 50 μl/well, which was stirred. The cells to which the ligand bound specifically, i.e., CCR5/CHO strains, were selected by measurement of radioactivity by γ-counter.
The CCR5/CHO strains were inoculated on a 96-well microplate at a concentration of 5×10^4 cells/well, respectively and were cultured for 24 hours. […]

SMILES | inhibition at 1 µM [%]
CCCCOCCOc1ccc(-c2ccc(N3CCC(C(=O)O)C3)c(/C=C(\C)C(=O)Nc3ccc([S@@+]([O-])Cc4cncn4CCC)cc3)c2)cc1 (some centres unmarked) [Compound 41, (Ss)-(2E)-3-[4′-(2-butoxyethoxy)-4-(3-carboxypyrrolidin-1-yl)-1,1′-biphenyl-3-yl]-2-methyl-N-[4-[[(1-propyl-1H-imidazol-5-yl)methyl]sulfinyl]phenyl]acrylamide] | 100
CCCCOCCOc1ccc(-c2ccc(N3CC(C)C(C)C3)c(/C=C(\C)C(=O)Nc3ccc([S@@+]([O-])Cc4cncn4CCC)cc3)c2)cc1 (stereo partly drawn) [Compound 42, (S)-(2E)-3-[4′-(2-butoxyethoxy)-4-(3,4-dimethylpyrrolidin-1-yl)-1,1′-biphenyl-3-yl]-2-methyl-N-[4-[[(1-propyl-1H-imidazol-5-yl)methyl]sulfinyl]phenyl]acrylamide] | 100
CCCCOCCOc1ccc(-c2cnc(N3CCC(C)C3)c(/C=C(\C)C(=O)Nc3ccc([S@@+]([O-])Cc4cncn4CCC)cc3)c2)cc1 (some centres unmarked) [Compound 48, (Ss)-(2E)-3-[5-[4-(2-butoxyethoxy)phenyl]-2-(3-methylpyrrolidin-1-yl)pyridin-3-yl]-2-methyl-N-[4-[[(1-propyl-1H-imidazol-5-yl)methyl]sulfinyl]phenyl]acrylamide] | 98
CCCCOCCOc1ccc(-c2ccc(N3CCC(CC(=O)O)C3)c(/C=C(\C)C(=O)Nc3ccc([S@@+]([O-])Cc4cncn4CCC)cc3)c2)cc1 (some centres unmarked) [Compound 62, (Ss)-(2E)-3-[4′-(2-butoxyethoxy)-4-[3-(carboxymethyl)pyrrolidin-1-yl]-1,1′-biphenyl-3-yl]-2-methyl-N-[4-[[(1-propyl-1H-imidazol-5-yl)methyl]sulfinyl]phenyl]acrylamide] | 100
